# Measured values: US6306636A, “Nucleic acid segments encoding wheat acetyl-CoA carboxylase” (Arch Development Corporation, priority 1997, dated 2001)
# Key:
# [1] = tested on: strain MJ 1.12 expressing wheat cytosolic ACCase; experiment: In vivo growth inhibition of yeast gene-replacement strain expressing wheat cytosolic ACCase; format: cell-based, S. cerevisiae; conditions: for effect on growth of gene-replacement strain (in vivo): MJ 1.12, liquid culture, YPR medium with 0.01% galactose
# Protocol: The yeast complex medium for vegetative growth contained 1% Bacto-yeast extract, 2% Bacto-peptone, 0.1% adenine sulfate and was supplemented with the following carbon sources: 2% Dextrose in YPD, 2% Raffinose in YPR, 2% galactose and 2% raffinose in YPRG. The yeast synthetic minimal medium (SD) contained 0.17% yeast nitrogen base, 0.5% ammonium sulfate, 2% dextrose, and was supplemented with various additives required for growth: adenine sulfate (10 mg/L), uracil (20 mg/L), histidine (20 mg/L), leucine (200 mg/L) and/or tryptophane (50 mg/L). The SRG medium is identical to SD, with dextrose replaced by 2% raffinose and 2% galactose. 2% bacto-agar was used in solid media. SPII (2% potassium acetate, supplemented with essential amino acids at 7.5 mg/L) and SPIII (0.1% bacto-yeast extract and 2% bacto-agar added to SPII) media for sporulation are described in (Klapholz and Esposito, 1982; Klapholz et al;. 1985). S. cerevisiae strain W303D-ACC1^ΔLEU2 was also obtained from Dr. S. D. Kohlwein. Yeast cells were transformed as described before (Chen et al., 1992) using Frozen-ELZ kit (Zymo Research, Orange Calif.) according to the manufacturer's protocol and transformants were selected using SD plates lacking a marker amino acid. Sporulation was induced in SPII or SPIII medium at 30° C. for 2-3 days. Dissection of asci was performed as described (Guthrie and Fink, 1991). YPD or YPRG plates were used for vegetative growth of ascospore clones following dissection. Galactose-dependent strains (MJ 6.8, 6.9, 1.12 and 1.13) were grown in YPRG medium and other strains in YPD medium, all at 30° C. To measure galactose induction, the strains were grown for ~24 h in YPR medium until all galactose was exhausted (growth of galactose-dependent strains ceased), and then diluted ~100 fold with YPR medium containing various amounts of galactose.
# (§1) Sethoxydim and Cethoxydim (CGA215684) were obtained from CIBA-GEIGY and haloxyfop was obtained from DowElanco. To measure inhibition in vivo, galactose-dependent strains were grown in YPR containing 0.01% galactose (to A600 of ~0.5) and then diluted (~100 fold) to the same initial density with fresh YPR medium containing 0.01% galactose and varying amounts of herbicide added as 100-fold concentrated stock solutions in DMSO. ACCase activity in vitro was measured using protein extracts prepared as described (Mitchell et al., 1993) from 25-50 ml cultures of yeast strains MJ 1.12 and MG 9.11 grown for 24-40 h. Cells were suspended in one volume of extraction buffer (0.3 M sorbitol, 0.1 M NaCl, 5 mM MgCl2, 10 mM Tris pH 7.4, supplemented with protease inhibitors: aprotinin (6.6 μ/mL), leupeptin (1.5 μ/mL), pepstatin A (3 μ/mL) and chymostatin (1 μg/mL), and vortexed with 2 volumes of glass beads for 5 min at 4° C. 1/200 volume of 100 mM ethanol solution of phenylmethylsulfonyl fluoride was added twice during extraction. The cell debris were removed by centrifugation and the supenatant (~0.5 ml) was loaded immediately on a 20 ml Sephadex G50 column equilibrated with 100 mM KCl, 20 mM Tris/HCl (pH 7.5), 20% glycerol, 7 mM β-mercaptoethanol. Protein was eluted with the same buffer and stored at -70° C. ACCase activity was measured as described before (Gornicki and Haselkorn, 1993) using aliquots of the column fractions. Herbicides were added to the reaction mixtures (1/10 or 1/20 volume) as a solution in 0.25-0.75 M Tris-HCl, pH8.0 containing 25% DMSO. Wheat germ extract was purchased from Promega.
# [2] = target: T1, wheat plastid ACCase (wheat germ extract) (Triticum aestivum, UniProt O48959); experiment: In vitro inhibition of ACCase in wheat germ extract; format: biochemical; conditions: wheat plastid enzyme in wheat germ extract
# T1 construct: mixed homoeologues, some cytosolic ACCase present
# Protocol: as §1, with “Protein was eluted with the same buffer and stored at -70° C.” left out, “Herbicides were added to the reaction mixtures (1/10 or 1/20 volume) as a solution in 0.25-0.75 M Tris-HCl, pH8.0 containing 25% DMSO. Wheat germ extract was purchased from Promega.” left out
# [3] = tested on: T2, wheat cytosolic ACCase expressed in yeast; experiment: In vitro inhibition of wheat cytosolic ACCase expressed in yeast (gel-filtered crude extract); format: biochemical
# T2 construct: Full length cDNA encoding wheat cytosolic ACCase was assembled; made in house; host or cells: S. cerevisiae haploid gene-replacement strain MJ 1.12 (crude extract, Sephadex G50)
# Protocol: as §1, with “Protein was eluted with the same buffer and stored at -70° C.” left out, “Herbicides were added to the reaction mixtures (1/10 or 1/20 volume) as a solution in 0.25-0.75 M Tris-HCl, pH8.0 containing 25% DMSO. Wheat germ extract was purchased from Promega.” left out
# [4] = target: T3, yeast ACCase (Saccharomyces cerevisiae, UniProt Q00955); experiment: In vitro inhibition of yeast ACCase (gel-filtered crude extract); format: biochemical, S. cerevisiae
# T3 construct: containing one copy of the yeast ACC1 gene (on the chromosome) and expressing ACCase under its own promoter; endogenous in cells; host or cells: S. cerevisiae haploid strain MJ 9.11 (W303D-derived), crude extract, Sephadex G50
# Protocol: as §1, with “Protein was eluted with the same buffer and stored at -70° C.” left out, “Herbicides were added to the reaction mixtures (1/10 or 1/20 volume) as a solution in 0.25-0.75 M Tris-HCl, pH8.0 containing 25% DMSO. Wheat germ extract was purchased from Promega.” left out
# [5] = tested on: maize ACCase, first minor peak; conditions: 50 μM; first minor peak (Howard and Ridley, 1990); cited from earlier work
# [6] = target: T1, wheat plastid ACCase (wheat germ extract); conditions: shown previously (Gornicki and Haselkorn, 1993); cited from earlier work
# [7] = target: T4, enzyme from pea chloroplasts (ACCase) (Pisum sativum, UniProt P18823+Q41008); experiment: In vitro ACCase activity assay, pea chloroplast enzyme; format: biochemical; conditions: read-out: 50% inhibition of ACCase activity
# T4 construct: the enzyme from pea chloroplasts is relatively resistant; from tissue; host or cells: pea chloroplasts
# T4 sequence (P18823 1-590): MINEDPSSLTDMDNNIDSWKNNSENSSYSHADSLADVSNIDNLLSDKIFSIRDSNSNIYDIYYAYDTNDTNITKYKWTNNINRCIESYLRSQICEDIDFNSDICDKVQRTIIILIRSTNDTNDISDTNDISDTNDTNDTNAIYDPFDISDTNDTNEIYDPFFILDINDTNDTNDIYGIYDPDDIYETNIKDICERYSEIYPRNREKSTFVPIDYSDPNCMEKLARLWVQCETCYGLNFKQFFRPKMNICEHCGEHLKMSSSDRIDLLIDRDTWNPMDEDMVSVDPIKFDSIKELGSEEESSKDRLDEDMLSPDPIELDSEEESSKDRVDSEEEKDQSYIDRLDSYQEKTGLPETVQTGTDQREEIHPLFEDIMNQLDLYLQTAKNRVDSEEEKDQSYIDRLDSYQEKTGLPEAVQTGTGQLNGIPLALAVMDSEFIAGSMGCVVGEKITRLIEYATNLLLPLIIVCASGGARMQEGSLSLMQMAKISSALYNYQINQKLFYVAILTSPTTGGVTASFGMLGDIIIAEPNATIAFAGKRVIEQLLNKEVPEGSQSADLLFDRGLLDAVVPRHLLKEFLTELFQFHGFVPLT
# T4 sequence (Q41008 51-875): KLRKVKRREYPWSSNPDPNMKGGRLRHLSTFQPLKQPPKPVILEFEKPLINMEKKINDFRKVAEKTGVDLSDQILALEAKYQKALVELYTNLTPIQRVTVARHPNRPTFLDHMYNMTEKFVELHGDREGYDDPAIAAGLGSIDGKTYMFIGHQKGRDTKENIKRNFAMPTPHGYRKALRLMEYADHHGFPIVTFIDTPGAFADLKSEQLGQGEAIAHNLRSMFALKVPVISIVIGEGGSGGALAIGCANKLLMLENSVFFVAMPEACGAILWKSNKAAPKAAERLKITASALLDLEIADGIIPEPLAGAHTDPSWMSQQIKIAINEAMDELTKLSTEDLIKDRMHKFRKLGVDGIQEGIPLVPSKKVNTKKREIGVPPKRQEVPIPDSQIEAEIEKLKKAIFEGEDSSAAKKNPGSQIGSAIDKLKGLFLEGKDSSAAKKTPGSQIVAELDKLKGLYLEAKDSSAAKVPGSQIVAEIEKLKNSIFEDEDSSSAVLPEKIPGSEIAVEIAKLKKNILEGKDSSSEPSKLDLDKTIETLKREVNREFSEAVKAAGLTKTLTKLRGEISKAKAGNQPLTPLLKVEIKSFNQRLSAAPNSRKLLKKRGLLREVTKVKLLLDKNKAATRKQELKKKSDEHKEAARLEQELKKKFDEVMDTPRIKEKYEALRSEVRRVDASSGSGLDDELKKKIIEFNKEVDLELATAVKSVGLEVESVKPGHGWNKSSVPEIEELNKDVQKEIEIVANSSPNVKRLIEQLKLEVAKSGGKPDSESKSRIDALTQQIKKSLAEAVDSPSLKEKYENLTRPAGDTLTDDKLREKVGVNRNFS
# [8] = tested on: wheat seedling leaves (ACCase, fatty acid synthesis); experiment: In vivo incorporation of 14C-acetate into fatty acids in cut wheat seedling leaves; set-up: species or system wheat (Triticum aestivum cv. Era); conditions: Triticum aestivum; freshly cut wheat seedling leaves, 4-6 h; read-out: 50% inhibition of in vivo incorporation of 14C-acetate into fatty acids
# Protocol: For the in vivo assay of ACCase activity, 2-week old seedlings of wheat (Triticum aestivum cv. Era) were cut about 1 cm below the first leaf and transferred to a 1.5 ml micro tube containing ^14 C-sodium acetate and haloxyfop (Tris salt) for 4-6 h. The leaves were then cut into small pieces and treated with 0.5 ml of 40% KOH for 1 h at 70° C., and then with 0.3 ml of H2 SO4 and 20 μl of 30% TCA on ice. Fatty acids were extracted with three 0.5 ml aliquots of petroleum ether. The organic phase was washed with 1 ml of water. Incorporation of ^14 C-acetate into fatty acids is expressed as the percentage of the total radioactivity taken up by the seedlings. present in the organic phase.
# [9] = tested on: strain MJ 9.11 expressing yeast ACCase (ACC1); experiment: In vivo growth inhibition of yeast strain expressing yeast ACCase; format: cell-based, S. cerevisiae; conditions: MJ 9.11, 800 μM inhibitor
# Protocol: The yeast complex medium for vegetative growth contained 1% Bacto-yeast extract, 2% Bacto-peptone, 0.1% adenine sulfate and was supplemented with the following carbon sources: 2% Dextrose in YPD, 2% Raffinose in YPR, 2% galactose and 2% raffinose in YPRG. The yeast synthetic minimal medium (SD) contained 0.17% yeast nitrogen base, 0.5% ammonium sulfate, 2% dextrose, and was supplemented with various additives required for growth: adenine sulfate (10 mg/L), uracil (20 mg/L), histidine (20 mg/L), leucine (200 mg/L) and/or tryptophane (50 mg/L). The SRG medium is identical to SD, with dextrose replaced by 2% raffinose and 2% galactose. 2% bacto-agar was used in solid media. SPII (2% potassium acetate, supplemented with essential amino acids at 7.5 mg/L) and SPIII (0.1% bacto-yeast extract and 2% bacto-agar added to SPII) media for sporulation are described in (Klapholz and Esposito, 1982; Klapholz et al;. 1985). […]
# Sethoxydim and Cethoxydim (CGA215684) were obtained from CIBA-GEIGY and haloxyfop was obtained from DowElanco. […] ACCase activity in vitro was measured using protein extracts prepared as described (Mitchell et al., 1993) from 25-50 ml cultures of yeast strains MJ 1.12 and MG 9.11 grown for 24-40 h. […] ACCase activity was measured as described before (Gornicki and Haselkorn, 1993) using aliquots of the column fractions. […]
# T1 sequence (O48959 1-2311): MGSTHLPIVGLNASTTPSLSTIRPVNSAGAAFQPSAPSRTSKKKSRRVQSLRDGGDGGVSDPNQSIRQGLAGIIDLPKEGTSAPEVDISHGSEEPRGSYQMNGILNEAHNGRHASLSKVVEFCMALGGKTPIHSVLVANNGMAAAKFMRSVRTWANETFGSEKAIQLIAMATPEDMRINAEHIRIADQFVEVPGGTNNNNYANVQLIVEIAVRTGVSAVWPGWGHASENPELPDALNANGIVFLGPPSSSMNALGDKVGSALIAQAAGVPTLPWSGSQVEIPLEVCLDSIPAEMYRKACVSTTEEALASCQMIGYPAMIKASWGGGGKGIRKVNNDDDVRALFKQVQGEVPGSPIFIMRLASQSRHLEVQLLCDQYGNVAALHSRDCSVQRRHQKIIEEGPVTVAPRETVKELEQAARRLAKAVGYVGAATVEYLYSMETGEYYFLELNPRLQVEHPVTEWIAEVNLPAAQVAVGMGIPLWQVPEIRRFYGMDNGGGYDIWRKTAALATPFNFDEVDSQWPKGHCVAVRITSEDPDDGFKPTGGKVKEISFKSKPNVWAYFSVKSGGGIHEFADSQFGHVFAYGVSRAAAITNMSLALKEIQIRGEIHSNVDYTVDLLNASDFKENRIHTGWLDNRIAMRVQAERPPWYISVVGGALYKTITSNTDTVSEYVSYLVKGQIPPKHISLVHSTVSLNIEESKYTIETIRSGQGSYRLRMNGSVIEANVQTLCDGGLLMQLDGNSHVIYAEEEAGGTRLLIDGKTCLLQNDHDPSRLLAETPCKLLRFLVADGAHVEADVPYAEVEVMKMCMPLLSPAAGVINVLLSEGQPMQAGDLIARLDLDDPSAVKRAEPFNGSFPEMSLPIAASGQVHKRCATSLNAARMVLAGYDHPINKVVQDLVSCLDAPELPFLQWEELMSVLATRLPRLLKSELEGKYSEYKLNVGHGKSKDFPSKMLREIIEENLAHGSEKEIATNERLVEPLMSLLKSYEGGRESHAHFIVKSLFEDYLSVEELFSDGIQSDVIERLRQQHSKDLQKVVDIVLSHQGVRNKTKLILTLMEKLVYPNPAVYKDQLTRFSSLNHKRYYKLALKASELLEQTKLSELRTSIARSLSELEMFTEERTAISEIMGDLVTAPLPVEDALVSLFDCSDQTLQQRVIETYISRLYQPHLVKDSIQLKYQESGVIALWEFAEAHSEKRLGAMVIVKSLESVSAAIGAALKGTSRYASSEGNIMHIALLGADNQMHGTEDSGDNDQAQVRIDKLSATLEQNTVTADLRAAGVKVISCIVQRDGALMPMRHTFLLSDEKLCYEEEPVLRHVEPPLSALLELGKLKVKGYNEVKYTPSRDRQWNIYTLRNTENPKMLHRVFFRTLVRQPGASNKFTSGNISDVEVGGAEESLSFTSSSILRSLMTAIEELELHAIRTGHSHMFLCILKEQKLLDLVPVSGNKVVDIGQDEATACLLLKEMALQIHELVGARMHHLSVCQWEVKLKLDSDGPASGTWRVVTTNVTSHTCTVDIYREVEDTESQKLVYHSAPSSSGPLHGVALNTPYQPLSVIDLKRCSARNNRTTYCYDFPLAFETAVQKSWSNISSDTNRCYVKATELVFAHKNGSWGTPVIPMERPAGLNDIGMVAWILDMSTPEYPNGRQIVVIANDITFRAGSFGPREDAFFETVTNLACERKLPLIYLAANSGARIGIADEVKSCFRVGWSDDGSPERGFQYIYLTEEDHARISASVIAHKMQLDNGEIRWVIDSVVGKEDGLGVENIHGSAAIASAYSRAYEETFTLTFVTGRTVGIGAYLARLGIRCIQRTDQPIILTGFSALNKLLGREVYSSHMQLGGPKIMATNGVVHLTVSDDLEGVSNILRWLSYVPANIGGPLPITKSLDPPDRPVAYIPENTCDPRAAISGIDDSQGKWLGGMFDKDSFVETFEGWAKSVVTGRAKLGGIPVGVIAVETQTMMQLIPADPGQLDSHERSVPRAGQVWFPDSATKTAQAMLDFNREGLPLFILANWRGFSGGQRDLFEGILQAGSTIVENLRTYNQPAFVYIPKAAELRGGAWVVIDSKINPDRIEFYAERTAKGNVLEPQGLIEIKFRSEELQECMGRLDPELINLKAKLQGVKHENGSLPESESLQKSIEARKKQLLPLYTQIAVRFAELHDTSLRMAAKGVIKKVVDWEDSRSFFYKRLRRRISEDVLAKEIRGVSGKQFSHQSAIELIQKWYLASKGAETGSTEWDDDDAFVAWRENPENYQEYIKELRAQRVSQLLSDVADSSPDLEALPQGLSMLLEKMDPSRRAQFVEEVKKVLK
# T2 sequence (Q38970 whole entry): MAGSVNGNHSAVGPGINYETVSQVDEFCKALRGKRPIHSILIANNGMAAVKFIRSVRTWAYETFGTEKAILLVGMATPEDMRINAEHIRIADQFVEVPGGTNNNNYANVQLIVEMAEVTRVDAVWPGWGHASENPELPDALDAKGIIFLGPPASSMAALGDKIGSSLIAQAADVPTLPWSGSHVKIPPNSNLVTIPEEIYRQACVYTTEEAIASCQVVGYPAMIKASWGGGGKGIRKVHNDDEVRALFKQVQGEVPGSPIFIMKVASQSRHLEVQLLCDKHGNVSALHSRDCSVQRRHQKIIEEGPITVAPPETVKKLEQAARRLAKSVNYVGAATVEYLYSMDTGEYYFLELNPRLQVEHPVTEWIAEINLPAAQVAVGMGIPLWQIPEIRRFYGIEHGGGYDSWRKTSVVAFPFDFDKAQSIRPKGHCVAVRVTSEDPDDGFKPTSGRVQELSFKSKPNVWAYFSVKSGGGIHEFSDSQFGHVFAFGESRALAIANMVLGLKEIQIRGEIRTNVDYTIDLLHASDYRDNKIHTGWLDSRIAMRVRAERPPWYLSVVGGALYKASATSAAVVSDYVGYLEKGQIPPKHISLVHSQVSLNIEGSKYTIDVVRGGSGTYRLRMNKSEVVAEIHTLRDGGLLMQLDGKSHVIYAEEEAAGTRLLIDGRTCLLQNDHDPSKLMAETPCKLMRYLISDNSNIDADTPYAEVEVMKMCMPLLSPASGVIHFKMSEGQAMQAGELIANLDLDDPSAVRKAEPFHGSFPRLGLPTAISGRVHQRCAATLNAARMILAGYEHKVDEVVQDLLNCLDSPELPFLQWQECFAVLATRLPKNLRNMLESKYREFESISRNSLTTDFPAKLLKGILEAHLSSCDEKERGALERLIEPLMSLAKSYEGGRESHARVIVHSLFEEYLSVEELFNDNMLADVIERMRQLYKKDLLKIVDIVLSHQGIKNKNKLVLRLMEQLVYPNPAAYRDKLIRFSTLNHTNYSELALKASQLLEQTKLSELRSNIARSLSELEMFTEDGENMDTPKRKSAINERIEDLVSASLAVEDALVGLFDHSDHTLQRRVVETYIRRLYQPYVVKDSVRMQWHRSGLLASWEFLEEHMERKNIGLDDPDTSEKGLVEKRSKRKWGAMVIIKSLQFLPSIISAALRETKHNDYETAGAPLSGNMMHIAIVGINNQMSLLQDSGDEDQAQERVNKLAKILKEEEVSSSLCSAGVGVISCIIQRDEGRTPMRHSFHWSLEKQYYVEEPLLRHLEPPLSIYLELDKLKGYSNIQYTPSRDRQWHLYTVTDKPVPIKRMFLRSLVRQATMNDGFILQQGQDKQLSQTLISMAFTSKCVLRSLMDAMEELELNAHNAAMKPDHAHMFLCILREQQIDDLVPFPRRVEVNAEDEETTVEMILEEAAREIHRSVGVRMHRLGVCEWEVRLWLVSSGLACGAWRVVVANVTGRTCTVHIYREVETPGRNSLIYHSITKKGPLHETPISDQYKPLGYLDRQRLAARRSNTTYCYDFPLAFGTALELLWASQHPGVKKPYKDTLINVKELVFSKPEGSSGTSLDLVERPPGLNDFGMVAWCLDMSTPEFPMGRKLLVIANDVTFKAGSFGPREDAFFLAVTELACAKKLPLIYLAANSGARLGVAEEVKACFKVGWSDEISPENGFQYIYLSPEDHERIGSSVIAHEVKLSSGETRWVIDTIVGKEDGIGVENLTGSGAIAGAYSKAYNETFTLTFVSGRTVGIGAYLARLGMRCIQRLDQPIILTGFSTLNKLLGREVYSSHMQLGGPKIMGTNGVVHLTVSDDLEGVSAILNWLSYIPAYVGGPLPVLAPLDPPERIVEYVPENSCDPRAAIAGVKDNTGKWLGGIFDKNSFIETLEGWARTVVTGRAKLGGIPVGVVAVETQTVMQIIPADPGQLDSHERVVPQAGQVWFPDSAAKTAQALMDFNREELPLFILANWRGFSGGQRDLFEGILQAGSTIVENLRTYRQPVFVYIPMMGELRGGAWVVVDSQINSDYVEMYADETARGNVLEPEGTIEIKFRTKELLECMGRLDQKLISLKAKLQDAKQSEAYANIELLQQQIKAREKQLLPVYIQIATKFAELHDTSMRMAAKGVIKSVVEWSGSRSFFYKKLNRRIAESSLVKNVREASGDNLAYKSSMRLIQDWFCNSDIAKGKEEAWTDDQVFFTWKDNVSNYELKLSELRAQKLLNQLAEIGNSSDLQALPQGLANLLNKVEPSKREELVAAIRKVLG
Structure (SMILES),effect on growth of gene-replacement strain (in vivo) [1],in vitro inhibition of ACCase activity [2],in vitro inhibition of ACCase activity [3],in vitro inhibition of ACCase activity [4],inhibition of ACCase activity [5],sensitivity of ACCase activity to inhibitor [6],IC50 [7] [µM],IC50 [8] [µM],"growth at 800 μM ([1]; MJ 1.12, 800 μM inhibitor)","IC50 ([1]; Saccharomyces cerevisiae, MJ 1.12, YPR medium with 0.01% galactose, A600 24 hrs after inoculation, read-out: 50% inhibition of growth) [µM]",growth at 800 μM [9]
CCC/C(=N\OCC)C1=C(O)CC(CC(C)SCC)CC1=O (stereo not shown) [Sethoxydim],no effect,weakest inhibitor,does not inhibit,does not inhibit,,,,,,,
"CC(Oc1ccc(Oc2ccc(C(F)(F)F)cn2)cc1)C(=O)O (stereo not shown) [fiuazifop, fluazifop]",,,,,not inhibited,,,,,,
CC(Oc1ccc(Oc2ncc(C(F)(F)F)cc2Cl)cc1)C(=O)O (stereo not shown) [haloxyfop],no effect,,,,,highly sensitive,> 50,< 1,,,
"CCC(=NOCC=CCl)C1C(=O)CC(C2(SC)CC2)CC1=O (stereo not shown) [cethoxydim, Cethoxydim]",completely inhibits growth,much stronger inhibitor,moderately inhibits,"although not completely resistant, is less sensitive",,,,,does not grow at all,~20,unaffected
